# Measurements from paper PMC10149367, “The ferroptosis inducing compounds RSL3 and ML162 are not direct inhibitors of GPX4 but of TXNRD1” (Redox Biology, 2023).
# Columns and labels:
# [1] = target: T1, glutathione reductase (GR) (Homo sapiens, UniProt P00390); assay: GR counter assay; format: biochemical; settings: Extended Data Fig. 2A right panel
# T1 construct: made in house
# T1 sequence (P00390 44-522): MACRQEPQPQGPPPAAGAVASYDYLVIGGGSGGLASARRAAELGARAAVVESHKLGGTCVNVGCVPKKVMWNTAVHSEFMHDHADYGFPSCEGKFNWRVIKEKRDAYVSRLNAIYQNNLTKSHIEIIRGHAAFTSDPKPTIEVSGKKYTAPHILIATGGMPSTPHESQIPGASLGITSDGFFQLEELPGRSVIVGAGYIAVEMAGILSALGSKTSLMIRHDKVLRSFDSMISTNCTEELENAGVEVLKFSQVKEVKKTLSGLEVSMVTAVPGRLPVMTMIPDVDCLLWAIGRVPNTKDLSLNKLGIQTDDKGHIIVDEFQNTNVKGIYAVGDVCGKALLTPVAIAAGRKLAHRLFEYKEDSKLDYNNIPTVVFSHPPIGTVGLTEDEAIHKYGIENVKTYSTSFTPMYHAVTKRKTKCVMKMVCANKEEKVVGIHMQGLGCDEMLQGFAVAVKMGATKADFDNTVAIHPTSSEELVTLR
# Procedure: Recombinant human proteins—Recombinant human selenoprotein GPX and TXNRD isoenzymes as well as recombinant human GR were cloned, expressed, and purified as described previously [[26], [27], [28]].
# GR counter assay was run by incubating 198 μL of GR and BSA in TES buffer with 2 μL compound for 30 min before dispensing 50 μL GSSG and NADPH in TES for final concentrations of 100 nM GR, 1 mM GSSG, 0.4 mM NADPH, 0.01% BSA. Absorbance at 340 was measured as above.
# A549 cells = assay: Cytotoxicity assay, A549 cells; format: cell-based, human; settings: for Cell viability compared to DMSO controls: 5 μM
# Procedure: (§1) Cell culture—H1975 and A549 cells were cultured in RPMI-1640 medium (HyClone) with Earle's salts supplemented and penicillin/streptomycin (100 μg/ml), while HT1080 cells were cultured in MEM medium for Fig. 2 experiments. For all other cellular experiments, A549 cells were cultured in DMEM 4.5 g/L glucose medium (Gibco), and H1975 cells in RPMI-1640 ATCC Modification (Gibco). Cell cultures were maintained at 37 °C in 5% CO2 in a medium containing 10% fetal bovine serum (FBS) (GE Healthcare, A15-102 for Fig. 2 experiments and Sigma, F7524 for all others). Experiments were performed with or without supplementation with 100 nM sodium selenite as described.
# (§2) Cytotoxicity assays— Cells were seeded in a 96-well plate at the density of 3 × 10^3 per well and allowed to adhere overnight. After which, cells were treated with various concentrations of compound for the indicated times, whereupon cell viability was determined using Cell Quanti-Blue™ Cell Viability Assay Kits (Nordic Diagnostica, CQBL-10K). Briefly, QUANTI-Blue Reagent (10 μL) was added to each well, incubated at 37 °C in 5% CO2 for 3 h, and then the plates were measured at 540nm/600 nm (Ex/Em) using the Tecan Microplate Reader (Morrisville NC, USA).
# H1975 cells = assay: Cytotoxicity assay, H1975 cells; format: cell-based, human
# Procedure: as §1, §2
# [2] = 24 h, media not supplemented with selenium
# [3] = A549, 24 h, no selenium supplementation
# [4] = A549 in absence of selenium supplementation, 24 h
smiles,measurement,setting,value
"COC(=O)c1ccc([C@@H]2c3[nH]c4ccccc4c3C[C@@H](C(=O)OC)N2C(=O)CCl)cc1 [RSL3, (1S,3R)RSL3]",Inhibition of GR,[1],did not inhibit GPX1 or GR
same,IC50,A549 cells; [2],~500 nM
same,Suppression of cell death by MitoTEMPO,A549 cells; [3],but not by the mitochondrial antioxidant MitoTEMPO
same,Suppression of cell death by addition of ferrostatin-1,A549 cells; [3],at least 20 fold
same,Cell viability compared to DMSO controls,"A549 cells; A549, non-selenium supplemented, 24 h",10%
same,Cell viability compared to DMSO controls,"A549 cells; A549, supplemented with 100 nM sodium selenite, 24 h",approximately 78%
same,Protection by caspase inhibitor z-VAD-fmk,A549 cells; [4],did not protect these cells from RSL3
same,Protection by necrostatin,A549 cells; [4],partially protected by nectrostatin
same,Block of cell death by antioxidants and iron chelators,"A549 cells; A549 without selenium supplementation, 24 h","blocked by ferrostatin, NDGA (another strong antioxidant), or the iron chelators DFO and DPD50"
same,IC50,H1975 cells; [2],150 nM
same,Rescue from cytotoxicity by selenium supplementation,"H1975 cells; H1975, 24 h",partial rescue
